Measured values as given in patent US20100286219A1, “1, 3-Dihydroimidazoles for Treating Cardiovascular Disorders” (BIAL - PORTELA & CA S.A., priority 2007, published 2010).
Blank lines part the entries; values can stand above or below the molecule they belong to.

Tests used:
human DβH = target: T1, human DβH (Homo sapiens, UniProt P09172); assay: DβH activity in SK-N-SH cells (β-hydroxylation of dopamine to noradrenaline); format: cell-based
T1 construct: endogenous in cells; host or cells: SK-N-SH cells
T1 sequence (P09172 1-617): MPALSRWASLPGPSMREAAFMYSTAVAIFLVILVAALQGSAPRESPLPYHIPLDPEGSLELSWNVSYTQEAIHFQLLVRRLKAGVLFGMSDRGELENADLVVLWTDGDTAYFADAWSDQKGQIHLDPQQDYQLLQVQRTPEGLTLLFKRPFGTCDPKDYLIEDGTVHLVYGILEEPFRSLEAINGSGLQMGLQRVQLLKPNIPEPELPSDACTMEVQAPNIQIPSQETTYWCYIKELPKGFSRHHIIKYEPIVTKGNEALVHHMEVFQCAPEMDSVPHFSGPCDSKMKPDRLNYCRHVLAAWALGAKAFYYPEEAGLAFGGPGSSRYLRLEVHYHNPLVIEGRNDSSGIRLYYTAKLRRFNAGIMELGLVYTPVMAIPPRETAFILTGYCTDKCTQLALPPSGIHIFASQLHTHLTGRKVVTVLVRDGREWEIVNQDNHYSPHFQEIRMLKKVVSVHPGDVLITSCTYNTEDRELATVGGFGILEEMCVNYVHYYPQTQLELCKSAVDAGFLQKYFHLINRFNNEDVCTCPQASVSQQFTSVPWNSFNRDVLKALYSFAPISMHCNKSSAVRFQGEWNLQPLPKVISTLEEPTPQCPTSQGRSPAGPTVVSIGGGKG

DβH [1] = target: T2, DβH (Rattus norvegicus, UniProt Q05754); assay: Noradrenaline tissue levels in rat heart and brain after oral administration; format: in vivo
T2 construct: noradrenaline levels in the rat heart (left atrium and left ventricle) and brain (frontal and parietal cortex); from tissue; host or cells: rat heart (left atrium, left ventricle) and brain (frontal and parietal cortex), in vivo
T2 sequence (Q05754 1-620): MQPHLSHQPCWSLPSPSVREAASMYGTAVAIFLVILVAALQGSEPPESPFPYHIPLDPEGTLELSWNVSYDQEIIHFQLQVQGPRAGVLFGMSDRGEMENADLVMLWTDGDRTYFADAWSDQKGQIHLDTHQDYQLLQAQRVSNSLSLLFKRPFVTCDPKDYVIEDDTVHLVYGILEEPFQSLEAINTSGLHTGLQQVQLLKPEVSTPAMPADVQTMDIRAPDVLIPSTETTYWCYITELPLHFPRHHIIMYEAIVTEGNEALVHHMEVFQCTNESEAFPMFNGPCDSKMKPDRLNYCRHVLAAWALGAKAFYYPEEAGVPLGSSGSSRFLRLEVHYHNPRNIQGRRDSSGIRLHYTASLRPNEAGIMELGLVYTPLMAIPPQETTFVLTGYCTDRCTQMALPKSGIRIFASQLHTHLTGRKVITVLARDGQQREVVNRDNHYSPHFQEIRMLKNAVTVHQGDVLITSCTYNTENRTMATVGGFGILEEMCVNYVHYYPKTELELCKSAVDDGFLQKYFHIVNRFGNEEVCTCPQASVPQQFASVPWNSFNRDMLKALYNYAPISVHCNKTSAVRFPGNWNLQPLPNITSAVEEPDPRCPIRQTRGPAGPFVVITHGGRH
Experimental: FIG. 3 is four graphs showing noradrenaline levels in the rat heart (left atrium and left ventricle) and brain (frontal and parietal cortex) 9 h after the oral administration of 4 or nepicastat 1. Columns are means of 5 determinations per group; vertical lines indicated S.E.M.

DβH [2] = target: T3, DβH (Mus musculus, UniProt Q64237); assay: Noradrenaline tissue levels in mouse heart and brain after oral administration; format: in vivo
T3 construct: noradrenaline levels in the mouse left ventricle and brain parietal cortex 9 h after oral administration; from tissue; host or cells: mouse left ventricle and brain parietal cortex (in vivo)
T3 sequence (Q64237 1-622): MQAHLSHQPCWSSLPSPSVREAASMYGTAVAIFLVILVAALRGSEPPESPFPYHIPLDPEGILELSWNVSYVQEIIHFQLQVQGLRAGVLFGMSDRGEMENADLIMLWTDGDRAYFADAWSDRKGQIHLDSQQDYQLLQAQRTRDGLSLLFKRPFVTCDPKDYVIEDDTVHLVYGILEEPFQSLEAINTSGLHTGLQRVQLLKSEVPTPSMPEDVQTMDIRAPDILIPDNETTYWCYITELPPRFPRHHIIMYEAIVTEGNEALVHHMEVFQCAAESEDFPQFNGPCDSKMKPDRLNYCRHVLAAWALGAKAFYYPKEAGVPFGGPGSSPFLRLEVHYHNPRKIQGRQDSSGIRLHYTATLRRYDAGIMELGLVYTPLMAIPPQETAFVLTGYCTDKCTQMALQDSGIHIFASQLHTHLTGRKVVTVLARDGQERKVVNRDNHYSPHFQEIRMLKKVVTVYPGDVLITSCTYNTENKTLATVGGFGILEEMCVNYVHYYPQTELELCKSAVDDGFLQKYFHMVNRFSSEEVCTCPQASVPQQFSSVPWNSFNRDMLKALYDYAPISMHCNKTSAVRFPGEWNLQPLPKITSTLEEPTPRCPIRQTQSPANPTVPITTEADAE
Experimental: FIG. 1 is a graph showing the time-dependent decrease of noradrenaline levels in the left ventricle of mice treated orally with 100 mg/kg of 4 or nepicastat 1. Symbols are means of 5 determinations per group; vertical lines indicate S.E.M.
FIG. 2 is two graphs showing noradrenaline levels in the mouse left ventricle and brain parietal cortex 9 h after oral administration of 4 or nepicastat 1. Symbols are means of 5 determinations per group; vertical lines indicate S.E.M.
Time of maximum effect (Tmax) for noradrenaline tissue reduction by both 4 and 1 appears to be at 9 h post-dose (FIG. 1). Thereafter, noradrenaline tissue levels recover, reaching 50% recovery of initial tissue levels at 24 h.
For both 4 and 1, the maximal inhibitory effect was attained at a dose of 100 mg/kg.

[3] = substrate: NCCc1ccc(O)c(O)c1; assay: cells, lysate or membranes; details: other: SK-N-SH cells, increasing concentrations of dopamine
[4] = mouse, 9 h after oral administration

DβH activity, Mean ± SEM, % of control (human DβH; compound 5 μM): 0.0 ± 0.3 % of control
IC50 against human DβH activity (in words) (human DβH; concentration-dependent decrease in β-hydroxylation of dopamine): low nM range
dose dependence of effect upon noradrenaline (DβH [1]; rat (data not shown)): dependent on the dose administered
time of maximum effect upon noradrenaline (DβH [1]; rat (data not shown)): 9 h
effect on noradrenaline tissue levels in brain parietal cortex and brain frontal cortex (DβH [1]; rat, 9 h after oral administration): produced a marked decrease
Time of maximum effect (Tmax) for noradrenaline tissue reduction (DβH [2]; mouse heart (left ventricle), 100 mg/kg oral): 9 h
recovery of initial noradrenaline tissue levels (DβH [2]; mouse heart, 100 mg/kg, at 24 h): 50%
duration of action (in words) (DβH [2]; mouse heart, time course at 100 mg/kg): long acting
dose at which maximal inhibitory effect was attained (DβH [2]; mouse left ventricle noradrenaline, 9 h after administration): 100 mg/kg
effect on noradrenaline tissue levels in brain parietal cortex (DβH [2]; [4]): produced a dose-dependent decrease
Molecule: NCc1c[nH]c(=S)n1[C@H]1CCc2c(F)cc(F)cc2C1 [Nepicastat 1, nepicastat, reference compound]
effect on noradrenaline levels in left ventricle (DβH [2]; [4]): reduced noradrenaline levels in a dose-dependent manner

B1: human DβH (Homo sapiens) (protein)
chain: T1 sequence (P09172 1-617)
Km [3]: 20.6 ± 1.6 µM
Vmax [3]: 153.8±4.4 nmol mg protein-1 h-1
